Assay results reported in PubChem BioAssay (NCI).
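Test compounds were applied to cells in 96-well plates for 48 hours at 5 doses. TGI marks complete inhibition of growth.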

Tests used:
Test in all cases: growth of human tumour cells (NCI), 48 h
COLO 205 colon = test system: COLO 205 colon
EKVX NSCLC = test system: EKVX NSCLC
NCI-H226 lung = test system: NCI-H226 lung
NCI-H522 lung = test system: NCI-H522 lung
OVCAR-5 ovarian = test system: OVCAR-5 ovarian
SK-MEL-2 melanoma = test system: SK-MEL-2 melanoma
SK-MEL-5 melanoma = test system: SK-MEL-5 melanoma
SNB-78 CNS = test system: SNB-78 CNS
U251 CNS = test system: U251 CNS
UO-31 renal = test system: UO-31 renal

SMILES | TGI (COLO 205 colon) [µM] | TGI (EKVX NSCLC) [µM] | TGI (NCI-H226 lung) [µM] | TGI (NCI-H522 lung) [µM] | TGI (OVCAR-5 ovarian) [µM] | TGI (SK-MEL-2 melanoma) [µM] | TGI (SK-MEL-5 melanoma) [µM] | TGI (SNB-78 CNS) [µM] | TGI (U251 CNS) [µM] | TGI (UO-31 renal) [µM]
COc1cccc(C=NC23CC4CC(CC(C4)C2)C3)c1 | > 100 | > 100 | > 100 | > 100 | > 100 | > 100 | > 100 | > 100 | > 100 | > 100
CCOC(=O)NN1C(=O)C(=P(c2ccccc2)(c2ccccc2)c2ccccc2)C(C(=O)OC)=C1C | > 100 | > 100 | > 100 | > 100 | > 100 | > 100 | > 100 | > 100 | > 100 | > 100
O=S1(=O)CCC2=CC(C(F)(F)F)=CC(C(F)(F)F)=CN21 | 1.34 | 9.38 | 5.58 | 0.601 | 3.93 | 4.1 | 3.02 | 6.49 | 3.43 | 2.05
CCOC(=N)CC(=O)Nc1ccccc1CC | > 100 | > 100 | > 100 | > 100 | > 100 | > 100 | > 100 | > 100 | > 100 | > 100
Cc1nc(Nc2ccc(Cl)cc2)sc1C(=O)Nc1cccc2c(=O)[nH][nH]c(=O)c12 | 34 | 44.2 | > 100 | 75.5 | > 100 | > 100 | 45.2 | > 100 | > 100 | > 100
Cc1cccc(C=NC23CC4CC(CC(C4)C2)C3)c1 | > 100 | > 100 | > 100 | > 100 | > 100 | > 100 | > 100 | > 100 | > 100 | > 100
COC(=O)CCC(NC(=S)N/N=C(\C)c1cccs1)C(=O)OC (stereo not given) | > 100 | > 100 | > 100 | > 100 | > 100 | > 100 | > 100 | > 100 | > 100 | > 100
O=C1C(=O)N(c2cc(Cl)ccc2Cl)C(=O)C(=O)C1c1nc2ccccc2s1 | > 100 | > 100 | > 100 | > 100 | > 100 | > 100 | > 100 | > 100 | > 100 | 90.8
O=C1C=C(NCCc2ccccc2)c2ccccc2C1=O | 3.6 | 20.8 | 4.61 | 4.41 | 3.39 | 5.18 | 2.31 | 42.8 | 16.1 | 11.4
c1ccc(C2N=C(c3ccccn3)C(c3ccccn3)=NC2c2ccccc2)cc1 (stereo not given) | > 100 | > 100 | > 100 | > 100 | > 100 | > 100 | > 100 | > 100 | > 100 | > 100
